In one series the test system is MDA-N. The series can be described thus: Cytotoxicity evaluation against […] breast cancer cells. As to conditions: Homo sapiens. Format: functional.
The subject of the next series is MDA-MB-435. The series can be described thus: Cytotoxicity evaluation against MDA-MB-435 breast cancer cells. Format: functional. The settings on record: Homo sapiens.
For a further series, the system named is SF-539. The series can be described thus: Cytotoxicity evaluation against SF-539 CNS cancer cells. Format: functional. The settings on record: Homo sapiens.
Series [1] has as its target Dihydrofolate reductase (Homo sapiens) (UniProt P00374). The series can be described thus: Compound was evaluated as inhibitor of human Dihydrofolate reductase. The settings on record: concentration not given here.
The test system of a further series is NCI-H226. Put plainly: Cytotoxicity evaluation against NCI-H226 non-small-cell lung cancer cells. Format: functional. As to conditions: Homo sapiens.
The test system of a further series is HL-60. Put plainly: Cytotoxicity evaluation against HL-60 Leukemia cells. Format: functional. The settings on record: Homo sapiens.
A further series concerns A549. The series can be described thus: Cytotoxicity evaluation against A549/ATCC non-small-cell lung cancer cells. Format: functional. As to conditions: Homo sapiens.
Series [2] concerns the target Thymidylate synthase (Homo sapiens, UniProt P04818). The series can be described thus: Compound was evaluated as inhibitor of human thymidylate synthase.
In another series the test system is SN12C. The series can be described thus: Cytotoxicity evaluation against SN12C renal cancer cells. Format: functional. As to conditions: Homo sapiens.
Series [3] addresses Thymidylate synthase (Lactobacillus casei, UniProt P00469). Put plainly: Compound was evaluated as inhibitor of Lactobacillus casei thymidylate synthase. Also noted: species or system Lacticaseibacillus casei.
Another series concerns HCT-15. The series can be described thus: Cytotoxicity evaluation against HCT-15 colon cancer cells. Format: functional. The settings on record: Homo sapiens.
The next series relates to MCF7. The series can be described thus: Cytotoxicity evaluation against MCF-7 breast cancer cells. Format: functional. The settings on record: Homo sapiens.
A further series has as its system R1-CCRF-CEM. Put plainly: Growth inhibition of MTX-resistant subline R1-CCRF-CEM Human Leukemia Cell was determined. Format: functional, cell-based.
For another series, the system named is CCRF-CEM. Put plainly: Growth inhibition of CCRF-CEM Human Leukemia Cell was determined. Format: functional, cell-based.
For another series, the system named is HT-29. The series can be described thus: Cytotoxicity evaluation against HT-29 colon cancer cells. Format: functional. The settings on record: Homo sapiens.
The next series relates to K562. The series can be described thus: Cytotoxicity evaluation against K-562 Leukemia cells. Format: functional. The settings on record: Homo sapiens.
Another series deals with R30dm-CCRF-CEM. The series can be described thus: Growth inhibition of MTX-resistant subline R30dm-CCRF-CEM Human Leukemia Cell was determined. Format: functional, cell-based.
Another series deals with SW-620. Put plainly: Cytotoxicity evaluation against SW-620 colon cancer cells. Format: functional. As to conditions: Homo sapiens.
Another series relates to NCI-H460. The series can be described thus: Cytotoxicity evaluation against NCI-H460 non-small-cell lung cancer cells. Format: functional. The settings on record: Homo sapiens.
For another series, the system named is OVCAR-4. The series can be described thus: Cytotoxicity evaluation against OVCAR-4 cells. Format: functional. The settings on record: Homo sapiens.
The subject of the next series is UACC-257. The series can be described thus: Cytotoxicity evaluation against UACC-257 melanoma cells. Format: functional. The settings on record: Homo sapiens.
The subject of another series is UACC-62. Put plainly: Cytotoxicity evaluation against UACC-62 melanoma cells. Format: functional. As to conditions: Homo sapiens.
In a further series the test system is MOLT-4. The series can be described thus: Cytotoxicity evaluation against MOLT-4 Leukemia cells. Format: functional. The settings on record: Homo sapiens.
The subject of the next series is ACHN. Put plainly: Cytotoxicity evaluation against ACHN renal cancer cells. Format: functional. As to conditions: Homo sapiens.
A further series has as its system LOX IMVI. The series can be described thus: Cytotoxicity evaluation against LOX IMVI melanoma cells. Format: functional. The settings on record: Homo sapiens.
The next series concerns R2-CCRF-CEM. Put plainly: Growth inhibition of MTX-resistant subline R2-CCRF-CEM Human Leukemia Cell was determined. Format: functional, cell-based.
For series [4], the target named is Thymidylate synthase (Escherichia coli, UniProt C3SWJ7). Put plainly: Compound was evaluated as inhibitor of Escherichia coli thymidylate synthase.
A further series concerns the target Dihydrofolate reductase (Homo sapiens, UniProt P00374).
Substrate in series [5]: Cc1nc(N)nc2[nH]cc(CCc3ccc(C(=O)N[C@@H](CCC(=O)O)C(=O)O)cc3)c12
Put plainly: (§1) Activity of compound calculated as maximum activity of substrate for human Folyl-polyglutamate synthase relative to the maximum activity for aminopterin.

Substrate in series [6]: Nc1nc(N)c2nc(CNc3ccc(C(=O)N[C@@H](CCC(=O)O)C(=O)O)cc3)cnc2n1
Described as §1.

Substrate in series [7]: CCc1[nH]c(N)nc2ncc(CCc3ccc(C(=O)N[C@@H](CCC(=O)O)C(=O)O)cc3)c1-2
The series is described as §1.

Substrate in series [8]: CCc1[nH]c(N)nc2nc(C)c(CCc3ccc(C(=O)N[C@@H](CCC(=O)O)C(=O)O)cc3)c1-2
The series is described as §1.

Substrate in series [9]: CCc1[nH]c(N)nc2ncc(CCc3ccc(C(=O)N[C@@H](CCC(=O)O)C(=O)O)cc3)c1-2
Put plainly: (§2) Activity of compound calculated as Km was tested as substrate for human Folyl-polyglutamate synthase.

Substrate in series [10]: CCc1[nH]c(N)nc2nc(C)c(CCc3ccc(C(=O)N[C@@H](CCC(=O)O)C(=O)O)cc3)c1-2
Described as §2.

Some results are limits rather than exact numbers.

Consider 5 molecules from ChEMBL document CHEMBL1145967, “Design, synthesis, and biological activities of classical N-[4-[2-(2-amino-4-ethylpyrrolo[2,3-d]pyrimidin-5-yl)ethyl]benzoyl]-l-glutamic acid and its 6-methyl derivative as potential dual inhibitors of thymidylate synthase and dihydrofolate reductase and as potential antitumor agents” (J Med Chem, 2003).

For orientation: GI50 means the concentration giving 50% growth inhibition. Read a high GI50 as less potent growth inhibition. A word on the inhibition: it is the percentage by which the read-out fell short of the control. For orientation: IC50 means the point on the concentration scale where inhibition reaches its midpoint. A lower IC50 goes with higher potency. For orientation: EC50 means the concentration at which the effect is half-maximal. High values mean a need for much substance, low ones an effect from little substance. As a reminder, the Km is the substrate concentration at which the rate is half of its maximum.

Thymidylate synthase (Homo sapiens, UniProt P04818), sequence (P04818 whole entry): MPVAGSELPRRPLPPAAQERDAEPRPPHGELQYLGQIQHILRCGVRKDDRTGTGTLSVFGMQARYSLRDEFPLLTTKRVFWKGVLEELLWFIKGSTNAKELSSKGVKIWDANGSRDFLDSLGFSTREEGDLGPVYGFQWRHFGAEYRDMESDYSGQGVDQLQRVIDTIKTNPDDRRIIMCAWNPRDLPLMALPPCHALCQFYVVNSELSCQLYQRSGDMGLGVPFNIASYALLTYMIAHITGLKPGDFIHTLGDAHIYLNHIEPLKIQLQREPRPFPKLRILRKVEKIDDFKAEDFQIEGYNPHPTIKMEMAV
Dihydrofolate reductase, sequence (P00374 whole entry): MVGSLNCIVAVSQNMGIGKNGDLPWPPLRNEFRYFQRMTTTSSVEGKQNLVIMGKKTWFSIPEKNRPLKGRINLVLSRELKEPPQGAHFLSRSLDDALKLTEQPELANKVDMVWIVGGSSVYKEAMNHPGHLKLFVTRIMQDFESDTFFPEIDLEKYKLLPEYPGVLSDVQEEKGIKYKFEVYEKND
Dihydrofolate reductase (Homo sapiens), sequence (P00374 whole entry): as above
Thymidylate synthase (Lactobacillus casei, UniProt P00469), sequence (P00469 whole entry): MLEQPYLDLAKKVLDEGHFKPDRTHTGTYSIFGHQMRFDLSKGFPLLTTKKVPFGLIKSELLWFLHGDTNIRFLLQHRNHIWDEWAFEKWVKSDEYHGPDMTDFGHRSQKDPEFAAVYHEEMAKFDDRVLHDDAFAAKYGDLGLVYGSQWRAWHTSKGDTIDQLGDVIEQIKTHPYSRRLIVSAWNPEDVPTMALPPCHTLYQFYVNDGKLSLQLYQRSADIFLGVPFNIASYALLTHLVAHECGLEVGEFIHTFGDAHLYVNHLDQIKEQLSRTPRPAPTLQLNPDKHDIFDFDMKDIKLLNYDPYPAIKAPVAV
Thymidylate synthase (Escherichia coli, UniProt C3SWJ7), sequence (C3SWJ7 whole entry): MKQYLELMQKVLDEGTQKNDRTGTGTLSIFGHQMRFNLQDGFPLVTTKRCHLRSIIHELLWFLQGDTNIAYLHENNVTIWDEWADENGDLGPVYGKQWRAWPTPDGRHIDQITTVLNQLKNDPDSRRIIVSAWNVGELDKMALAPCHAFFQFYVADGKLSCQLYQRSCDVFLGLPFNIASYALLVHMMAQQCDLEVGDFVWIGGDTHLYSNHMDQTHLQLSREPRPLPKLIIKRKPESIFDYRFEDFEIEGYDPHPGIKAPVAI

Consider `CCc1[nH]c(N)nc2nc(C)c(CCc3ccc(C(=O)N[C@@H](CCC(=O)O)C(=O)O)cc3)c1-2`, for which the GI50 in the series on MDA-N is greater than 100000 nM; with MDA-MB-435, greater than 100000 nM; in the series on SF-539, greater than 100000 nM; with NCI-H226, greater than 100000 nM; with HL-60 it was less than 10 nM; in the series on A549, greater than 100000 nM. Moreover, the 50% growth inhibitory concentration (GI50) with SN12C is greater than 100000 nM; with HCT-15 it was greater than 100000 nM; in the series with MCF7 it was greater than 100000 nM; in the series with HT-29 it was greater than 100000 nM; in the series with K562, 143 nM; in the series on SW-620, greater than 100000 nM. Moreover, the GI50 in the series on NCI-H460 was greater than 100000 nM; in the series on OVCAR-4 it was greater than 100000 nM; in the series on UACC-257, greater than 100000 nM; with UACC-62, greater than 100000 nM; in the series on MOLT-4, 100 nM; with ACHN, greater than 100000 nM. This molecule also yielded a GI50 with LOX IMVI of 98600 nM. The same molecule showed an inhibition in series [1] of 14%. Moreover, the results for the IC50 at Thymidylate synthase [2] and against Thymidylate synthase [3] were 9000 nM and greater than 100000 nM, respectively. In addition, the EC50 with R1-CCRF-CEM is greater than 20000 nM; in the series on CCRF-CEM it was greater than 10000 nM; in the series with R30dm-CCRF-CEM it was greater than 20000 nM; in the series on R2-CCRF-CEM, greater than 10000 nM.
For `CCc1nc(N)nc2[nH]cc(CCc3ccc(C(=O)N[C@@H](CCC(=O)O)C(=O)O)cc3)c12`, the GI50 with MDA-N, in the series with MDA-MB-435, in the series with SF-539, in the series with NCI-H226, in the series on HL-60 and with A549 was less than 10 nM in each case. Also, the GI50 with SN12C, in the series with HCT-15, in the series with MCF7, in the series on HT-29, in the series with K562 and with SW-620 was less than 10 nM in each case. In addition, the GI50 in the series on NCI-H460 was less than 10 nM; in the series on OVCAR-4 it was less than 10 nM; in the series with UACC-257 it was less than 10 nM; with UACC-62 it was less than 10 nM; in the series with MOLT-4, greater than 100000 nM; with ACHN it was 169 nM. The GI50 in the series with LOX IMVI is less than 10 nM. The IC50 on Thymidylate synthase [4] and against Thymidylate synthase [2] was 80000 nM in each case. Moreover, the EC50 in the series on R1-CCRF-CEM came out at 695 nM; in the series on CCRF-CEM it was 15 nM; with R30dm-CCRF-CEM it was 18.5 nM; with R2-CCRF-CEM it was 750 nM.
`Cc1nc(N)nc2[nH]cc(CCc3ccc(C(=O)N[C@@H](CCC(=O)O)C(=O)O)cc3)c12`: the GI50 in the series with MDA-N is greater than 100000 nM; in the series with MDA-MB-435, greater than 100000 nM; in the series on HL-60, less than 10 nM; in the series on SN12C, greater than 100000 nM; with HCT-15, greater than 100000 nM; in the series with HT-29, greater than 100000 nM. Also, the GI50 in the series with K562 was 14700 nM; in the series with SW-620, greater than 100000 nM; in the series on OVCAR-4, greater than 100000 nM; in the series on UACC-257 it was greater than 100000 nM; with UACC-62 it was greater than 100000 nM; in the series on LOX IMVI, 11500 nM. The molecule further had an IC50 against Dihydrofolate reductase of 1200 nM. The values for the EC50 in the series with R1-CCRF-CEM, in the series on R30dm-CCRF-CEM and in the series on R2-CCRF-CEM were 158 nM, 18.5 nM and 575 nM, respectively.
For the molecule `CN(Cc1cnc2nc(N)nc(N)c2n1)c1ccc(C(=O)N[C@@H](CCC(=O)O)C(=O)O)cc1` [METHOTREXATE], the EC50 in the series on R1-CCRF-CEM is 985 nM; in the series with R30dm-CCRF-CEM, 12.8 nM; in the series with R2-CCRF-CEM, 2630 nM.

B1: Folylpolyglutamate synthase, mitochondrial (Homo sapiens), Q05932 (protein)
chain: MSRARSHLRAALFLAAASARGITTQVAARRGLSAWPVPQEPSMEYQDAVRMLNTLQTNAGYLEQVKRQRGDPQTQLEAMELYLARSGLQVEDLDRLNIIHVTGTKGKGSTCAFTECILRSYGLKTGFFSSPHLVQVRERIRINGQPISPELFTKYFWRLYHRLEETKDGSCVSMPPYFRFLTLMAFHVFLQEKVDLAVVEVGIGGAYDCTNIIRKPVVCGVSSLGIDHTSLLGDTVEKIAWQKGGIFKQGVPAFTVLQPEGPLAVLRDRAQQISCPLYLCPMLEALEEGGPPLTLGLEGEHQRSNAALALQLAHCWLQRQDRHGAGEPKASRPGLLWQLPLAPVFQPTSHMRLGLRNTEWPGRTQVLRRGPLTWYLDGAHTASSAQACVRWFRQALQGRERPSGGPEVRVLLFNATGDRDPAALLKLLQPCQFDYAVFCPNLTEVSSTGNADQQNFTVTLDQVLLRCLEHQQHWNHLDEEQASPDLWSAPSPEPGGSASLLLAPHPPHTCSASSLVFSCISHALQWISQGRDPIFQPPSPPKGLLTHPVAHSGASILREAAAIHVLVTGSLHLVGGVLKLLEPALSQ
With B1, the relative Vmax in [5] is 0.17; in series [7], 0.23; in series [8], 0.1. For the same molecule, the Vmax in series [6] was 1 µM. Moreover, the Km is less than 2 µM in series [9] and 96 µM in [10].
